Test results published in PubChem BioAssay AID1919015 (Molecular Pharmacology Branch, DTP, NCI, 2023).
pIC50: −log10 of the molar value.

Test system: OVCAR-5 complex spheroids with HUVEC/MSC, viability, % test/control
Test: Anticancer human tumor OVCAR-5 cell line growth inhibition [AhR];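 note: spheroids exposed to compounds for 7 days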;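 for viability, T/C: 100% = DMSO vehicle control wells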
Settings: for pIC50: curve of first compound; for viability, T/C: stronger effect = lower value
Method in brief: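 Agents were dosed in half-log steps down from roughly clinical Cmax, or from 10 microM where Cmax was unknown, alone and with AhR antagonists. Read-out: percent test/control growth of tumor spheroids containing HUVEC and MSC stromal cells.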

CC(C)c1c(-c2ccccc2)nc2c(C#N)c[nH]n2c1=O + Cc1cncc(-c2nc(NCCc3c[nH]c4ccccc34)c3ncn(C(C)C)c3n2)c1
pIC50 (second compound 0.1 µM): < 5.00
pIC50 (second compound 0.316 µM): < 5.00
pIC50 (second compound 1 µM): < 5.00
pIC50 (second compound 3.16 µM): < 5.00
pIC50 (second compound 10 µM): > 7.50
viability, T/C (second compound 0.1 µM, first compound 0.0316 µM): 100%
viability, T/C (second compound 0.1 µM, first compound 0.1 µM): 99.5%
viability, T/C (second compound 0.1 µM, first compound 0.316 µM): 100%
viability, T/C (second compound 0.1 µM, first compound 1 µM): 100%
viability, T/C (second compound 0.1 µM, first compound 3.16 µM): 96.4%
viability, T/C (second compound 0.1 µM, first compound 10 µM): 106%
viability, T/C (second compound 0.316 µM, first compound 0.0316 µM): 101%
viability, T/C (second compound 0.316 µM, first compound 0.1 µM): 103%
viability, T/C (second compound 0.316 µM, first compound 0.316 µM): 98.5%
viability, T/C (second compound 0.316 µM, first compound 1 µM): 102%
viability, T/C (second compound 0.316 µM, first compound 3.16 µM): 95.2%
viability, T/C (second compound 0.316 µM, first compound 10 µM): 106%
viability, T/C (second compound 1 µM, first compound 0.0316 µM): 96.8%
viability, T/C (second compound 1 µM, first compound 0.1 µM): 99.1%
viability, T/C (second compound 1 µM, first compound 0.316 µM): 100%
viability, T/C (second compound 1 µM, first compound 1 µM): 94.1%
viability, T/C (second compound 1 µM, first compound 3.16 µM): 94.8%
viability, T/C (second compound 1 µM, first compound 10 µM): 103%
viability, T/C (second compound 3.16 µM, first compound 0.0316 µM): 81.5%
viability, T/C (second compound 3.16 µM, first compound 0.1 µM): 84.1%
viability, T/C (second compound 3.16 µM, first compound 0.316 µM): 86.1%
viability, T/C (second compound 3.16 µM, first compound 1 µM): 83.6%
viability, T/C (second compound 3.16 µM, first compound 3.16 µM): 90.1%
viability, T/C (second compound 3.16 µM, first compound 10 µM): 88.7%
viability, T/C (second compound 10 µM, first compound 0.0316 µM): 14.2%
viability, T/C (second compound 10 µM, first compound 0.1 µM): 14.2%
viability, T/C (second compound 10 µM, first compound 0.316 µM): 17.8%
viability, T/C (second compound 10 µM, first compound 1 µM): 16.3%
viability, T/C (second compound 10 µM, first compound 3.16 µM): 16%
viability, T/C (second compound 10 µM, first compound 10 µM): 25.1%
